The values below come from article PMC9515629, “Cystargolide-based amide and ester Pz analogues as proteasome inhibitors and anti-cancer agents” (Royal Society Open Science, 2022).

The subject of one series is Jurkat cells. The series is described as follows: Cytotoxicity toward Jurkat cells. It counts as cell-based. To be noted: Homo sapiens, read-out: cytotoxicity IC50 ± s.d., Jurkat. The procedure: (§1) Next, analogues 8a–l were evaluated for their cytotoxicities toward Jurkat cells, a human T-cell leukemia model, as well as the breast cancer cell lines MCF-7 and MDA-MB-231, and the multiple myeloma cell line RPMI 8226.

Series [1] addresses T1, β5 subunit of human proteasomes (hβ5) (Homo sapiens, UniProt P28074).
T1 construct: endogenous in cells; host or cells: Jurkat cell lysate (crude)
T1 sequence (P28074 60-263): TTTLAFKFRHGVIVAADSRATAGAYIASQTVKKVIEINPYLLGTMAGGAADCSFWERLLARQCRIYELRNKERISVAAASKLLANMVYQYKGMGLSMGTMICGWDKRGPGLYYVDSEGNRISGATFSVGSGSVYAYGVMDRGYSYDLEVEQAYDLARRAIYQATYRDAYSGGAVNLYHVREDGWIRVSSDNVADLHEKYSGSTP
Briefly: Proteasome chymotrypsin-like (β5) activity in crude Jurkat cell lysate, Suc-LLVY-AMC substrate. It counts as biochemical. Conditions: read-out: proteasome inhibition IC50 ± s.d., hβ5. The procedure: Based on our previously reported procedure, the degree of peptide cleavage in a crude Jurkat cell lysate was measured to determine proteasome activity. The fluorescent substrate Suc-LLVY-AMC (Enzo Life Sciences) was used to determine chymotrypsin-like (β5) activity of the proteasomes.

Series [2] deals with MCF-7 cells. The series is described as follows: Cytotoxicity toward MCF-7 cells. It counts as cell-based. Conditions: Homo sapiens, MCF7; read-out: cytotoxicity IC50 ± s.d., MCF-7. The procedure: as §1
Series [3] concerns RPMI 8226 cells. The series is described as follows: Cytotoxicity toward RPMI 8226 cells. Conditions: Homo sapiens, read-out: cytotoxicity IC50 ± s.d., RPMI 8226. In kind it is cell-based. The procedure: as §1
Series [4] relates to MDA-MB-231 cells. The series is described as follows: Cytotoxicity toward MDA-MB-231 cells. It counts as cell-based. Conditions: Homo sapiens, read-out: cytotoxicity IC50 ± s.d., MDA-MB-231. The procedure:
as §1

Series [5] can be described thus: Biological stability in serum. In kind it is in vitro ADME. The source says: (§2) Isosteric replacement of the phenyl ring at Pz by either a pyridyl or pyrazyl group was well tolerated, allowing the inclusion of one (compounds 8b–d and 8g–i) or two nitrogen atoms (compounds 8e and 8j).
Series [6] in a line: Experimentally determined LogP. In kind it is physicochemical.
The subject of a further series is MCF-10A cells. The series is described as follows: Cytotoxicity toward MCF-10A cells (normal breast tissue model). It counts as cell-based. To be noted: Homo sapiens, model for normal breast tissue.
Another series is described as follows: Half-life in buffer. In kind it is physicochemical.
Text: as §2

The conditions of series [7]: cited from earlier work.
In series [8] the test system is RPMI 8226 cells. The arrangement: method as in PMID 30165344. To be noted: earlier work; read-out: cytotoxicity IC50, RPMI 8226; cited from earlier work.
The test system of series [9] is MCF-7 cells. Details: method as in PMID 30165344. To be noted: earlier work; read-out: cytotoxicity IC50, MCF-7; cited from earlier work.
Series [10] concerns MDA-MB-231 cells. Details: method as in PMID 30165344. Conditions: earlier work; read-out: cytotoxicity IC50, MDA-MB-231; cited from earlier work.

Molecules are shown by their SMILES. Read-outs that look alike come from different tables or passages of the source.

Regarding `CC[C@H](C)[C@@H]1C(=O)O[C@H]1C(=O)N[C@H](C(=O)N[C@@H](COCc1ccccc1)C(=O)NCc1ccccc1)C(C)C` [8a], the IC50 in the series with Jurkat cells was 12 ± 2 nM; in series [1] it was 2.3 ± 0.9 nM; in the series with MCF-7 cells [2], 2290 ± 195 nM; in the series on RPMI 8226 cells [3], 64 ± 4 nM; with MDA-MB-231 cells [4] it was 1940 ± 166 nM.

As for `CC[C@H](C)[C@@H]1C(=O)O[C@H]1C(=O)N[C@H](C(=O)N[C@@H](COCc1ccccc1)C(=O)NCc1ccccn1)C(C)C` [8b], the IC50 is 58 ± 14 nM with Jurkat cells; 4.1 ± 1.9 nM in [1]; 453 ± 24 nM in the series with MCF-7 cells [2]; 139 ± 6 nM in the series with RPMI 8226 cells [3]; 156 ± 3 nM in the series on MDA-MB-231 cells [4].

Regarding `CC[C@H](C)[C@@H]1C(=O)O[C@H]1C(=O)N[C@H](C(=O)N[C@@H](COCc1ccccc1)C(=O)NCc1cccnc1)C(C)C` [8c], the IC50 in the series on Jurkat cells amounted to 71 ± 19 nM; in series [1], 3.9 ± 1.8 nM; in the series on MCF-7 cells [2], 5630 ± 550 nM; in the series with RPMI 8226 cells [3], 85 ± 3 nM; in the series with MDA-MB-231 cells [4], 242 ± 6 nM.

For the molecule `CC[C@H](C)[C@@H]1C(=O)O[C@H]1C(=O)N[C@H](C(=O)N[C@@H](COCc1ccccc1)C(=O)NCc1ccncc1)C(C)C` [8d], the IC50 was 64 ± 10 nM with Jurkat cells; 3 ± 1.2 nM in [1]; 5300 ± 598 nM in the series on MCF-7 cells [2]; 37 ± 1 nM in the series with RPMI 8226 cells [3]; 328 ± 12 nM in the series on MDA-MB-231 cells [4].

Turning to `CC[C@H](C)[C@@H]1C(=O)O[C@H]1C(=O)N[C@H](C(=O)N[C@@H](COCc1ccccc1)C(=O)NCc1cnccn1)C(C)C` [8e], the IC50 in the series on Jurkat cells was 132 ± 4 nM; in series [1] it was 8.4 ± 3.4 nM; with MCF-7 cells [2], 5180 ± 602 nM; in the series with RPMI 8226 cells [3], 31 ± 2 nM; with MDA-MB-231 cells [4], 255 ± 6 nM.

For `CC[C@H](C)[C@@H]1C(=O)O[C@H]1C(=O)N[C@H](C(=O)N[C@@H](COCc1ccccc1)C(=O)NCc1cc(OC)cc(OC)c1)C(C)C` [8f], the IC50 was found to be 63 ± 2 nM with Jurkat cells; 4.5 ± 1.5 nM in series [1]; 322 ± 39 nM in the series on MCF-7 cells [2]; 26 ± 1 nM in the series on RPMI 8226 cells [3]; 53 ± 2 nM in the series on MDA-MB-231 cells [4].

For the molecule `CC[C@H](C)[C@@H]1C(=O)O[C@H]1C(=O)N[C@H](C(=O)N[C@@H](COCc1ccccc1)C(=O)OCc1ccccn1)C(C)C` [8g], in series [5], the “biological stability in serum” value is given as “greater than 5 min”. Further, the IC50 turned out to be 35 ± 10 nM in the series on Jurkat cells; 7.1 ± 1.6 nM in series [1]; 1020 ± 42 nM in the series on MCF-7 cells [2]; 21 ± 3 nM in the series with RPMI 8226 cells [3]; 39 ± 2 nM in the series with MDA-MB-231 cells [4]; 123 nM in the series with MCF-10A cells. Also, in series [6], the logP amounted to 1.65. Also, the half-life in “Half-life in buffer” is > 10 min.

Turning to `CC[C@H](C)[C@@H]1C(=O)O[C@H]1C(=O)N[C@H](C(=O)N[C@@H](COCc1ccccc1)C(=O)OCc1cccnc1)C(C)C` [8h], the IC50 amounted to 61 ± 16 nM in the series with Jurkat cells; 3.3 ± 1.8 nM in series [1]; 3800 ± 293 nM in the series with MCF-7 cells [2]; 43 ± 2 nM in the series on RPMI 8226 cells [3]; 132 ± 3 nM in the series on MDA-MB-231 cells [4].

For the molecule `CC[C@H](C)[C@@H]1C(=O)O[C@H]1C(=O)N[C@H](C(=O)N[C@@H](COCc1ccccc1)C(=O)OCc1ccncc1)C(C)C` [8i], the IC50 in the series with Jurkat cells stood at 36 ± 10 nM; in series [1], 4 ± 1.1 nM; in the series with MCF-7 cells [2], 4930 ± 403 nM; with RPMI 8226 cells [3], 35 ± 3 nM; in the series with MDA-MB-231 cells [4] it was 108 ± 7 nM.

As for `CC[C@H](C)[C@@H]1C(=O)O[C@H]1C(=O)N[C@H](C(=O)N[C@@H](COCc1ccccc1)C(=O)OCc1cnccn1)C(C)C` [8j], the IC50 was determined as 166 ± 9 nM with Jurkat cells; 13.7 ± 1.6 nM in series [1]; 4530 ± 290 nM with MCF-7 cells [2]; 48 ± 2 nM with RPMI 8226 cells [3]; 146 ± 3 nM in the series with MDA-MB-231 cells [4].

In the case of `CC[C@H](C)[C@@H]1C(=O)O[C@H]1C(=O)N[C@H](C(=O)N[C@@H](COCc1ccccc1)C(=O)OCc1ccc(Cl)cc1)C(C)C` [8k], the IC50 in the series on Jurkat cells came to 182 ± 15 nM; in series [1] it was 18.2 ± 54 nM; in the series with MCF-7 cells [2], 3500 ± 279 nM; in the series on RPMI 8226 cells [3], 182 ± 4 nM; in the series with MDA-MB-231 cells [4], 222 ± 15 nM.

In the case of `CC[C@H](C)[C@@H]1C(=O)O[C@H]1C(=O)N[C@H](C(=O)N[C@@H](COCc1ccccc1)C(=O)OCc1ccc(OC)cc1)C(C)C` [8l], the IC50 with Jurkat cells worked out at 2260 ± 158 nM; in series [1] it was 18.8 ± 5 nM; in the series with MCF-7 cells [2] it was 1670 ± 267 nM; in the series on RPMI 8226 cells [3], 112 ± 2 nM; in the series with MDA-MB-231 cells [4], 636 ± 47 nM.

With `CC(C)C[C@H](NC(=O)[C@H](Cc1ccccc1)NC(=O)c1cnccn1)B(O)O` [bortezomib], the “peripheral neuropathy, share of patients” value in series [7] was “more than 30%”.

As to `CC(C)C[C@H](NC(=O)[C@H](CCc1ccccc1)NC(=O)CN1CCOCC1)C(=O)N[C@@H](Cc1ccccc1)C(=O)N[C@@H](CC(C)C)C(=O)[C@@]1(C)CO1` [carfilzomib, reference compound], the half-maximal inhibitory concentration (IC50) in the series on Jurkat cells came out at 3.7 ± 0.3 nM; in the series on MCF-7 cells [2], 5.9 ± 0.7 nM; in the series on RPMI 8226 cells [3], 3.7 ± 0.3 nM; in the series with MDA-MB-231 cells [4], 4.4 ± 0.1 nM; in the series with MCF-10A cells, 79 nM.

In the case of `CC[C@H](C)[C@@H]1C(=O)O[C@H]1C(=O)N[C@H](C(=O)N[C@@H](COCc1ccccc1)C(=O)OCc1ccccc1)C(C)C` [compound 1], the IC50 in the series on RPMI 8226 cells [8] is 41 nM; with MCF-7 cells [9] it was 416 nM; in the series with Jurkat cells, 62 ± 7 nM; with MCF-7 cells [2] it was 2380 ± 261 nM; in the series with RPMI 8226 cells [3], 45 ± 0.5 nM; in the series with MDA-MB-231 cells [10], 74 nM. The IC50 in the series on MDA-MB-231 cells [4] was 620 ± 50 nM.
